Laboratory results reported in patent publication US20070248591A1, “Preventive/Therapeutic Drug for Arteriosclerosis” (TAKEDA PHARMACEUTICAL COMPANY LIMITED, priority 2004, published 2007).

Key:
phosphorylation of IRS-1 = details: J. Biol. Chem., 277, 3085-3092, 2002; cited from earlier work
cells = details: J. Biochem. (Tokyo), 117, 766-773, 1995; cited from earlier work
[1] = target: T1, glucosylceramide synthase (Homo sapiens, UniProt Q16739); details: Glycoconjugate J., 13, 481-486, 1996; cited from earlier work
T1 sequence (Q16739 1-394): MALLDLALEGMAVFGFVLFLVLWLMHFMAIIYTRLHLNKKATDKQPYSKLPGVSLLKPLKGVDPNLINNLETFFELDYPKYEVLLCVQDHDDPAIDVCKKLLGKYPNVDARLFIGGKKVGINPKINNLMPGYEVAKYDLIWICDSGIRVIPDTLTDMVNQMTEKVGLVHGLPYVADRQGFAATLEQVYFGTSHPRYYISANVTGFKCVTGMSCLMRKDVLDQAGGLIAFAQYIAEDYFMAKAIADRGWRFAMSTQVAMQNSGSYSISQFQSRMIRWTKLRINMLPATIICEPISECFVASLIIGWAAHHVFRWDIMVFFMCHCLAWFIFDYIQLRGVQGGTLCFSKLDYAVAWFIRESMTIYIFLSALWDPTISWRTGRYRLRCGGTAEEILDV

[2] = test system: lactosylceramide synthase; details: Glycoconjugate J., 13, 481-486, 1996; cited from earlier work
THP-1 cells [3] = test: Cholesterol efflux activity in foamed THP-1 macrophage-like cells ([3H]cholesterol, apolipoprotein AI); assay type: cell-based; details: for Cholesterol Efflux Activity (%): mean ± standard deviation
Description: THP-1 cells (purchased from ATCC; Int. J. Cancer., 26, 171-176, 1980) seeded in a 12-well plate (Falcon) at 8.0×10^5/well were treated for 3 days in RPMI-1640 medium (supplemented with 10% FBS, 25 mM HEPES and penicillin/streptomycin) containing phorbol-12-myristate-13-acetate (PMA) (final concentration: 100 nM) to allow for differentiation into macrophage-like cells. After washing with PBS, serum-free RPMI-1640 containing [^3H] cholesterol-labeled βVLDL (final cholesterol level: 150 μg/ml) was added thereto and incubated for 24 hours to prepare foamed cells. After washing twice with 0.2% BSA-containing PBS and then once with PBS, serum-free RPMI-1640 media supplemented with 0, and 20 µM D-PDMP, respectively, were added to treat for 24 and 48 hours. The supernatant was removed and RPMI-1640 medium (final concentration: 25 μg/ml) containing human apolipoprotein AI (Chemicon) was added thereto. Six hours after, the radioactivity released into the supernatant was measured in a liquid scintillation counter. The cells were further washed once with PBS and then lysed in 0.1% SDS-containing 0.1 N NaOH aqueous solution. A part of the lysate was taken up and the radioactivity was measured in a liquid scintillation counter.
The activity in efflux of cholesterol was determined by the following equation: Cholesterol efflux activity (%)=Radioactivity in supernatant/(Radioactivity in supernatant+Radioactivity in cell lysate)×100
Cells were prepared as described in (1) above. After the foamed cells prepared were washed, serum-free RPMI-1640 media containing 10 μM of glucosylceramide (Matreya, Inc.) and lactosylceramide (CALBIOCHEM), respectively, were added to treat for 24 hours. The supernatant was removed and RPMI-1640 medium (final concentration: 25 μg/ml) containing human apolipoprotein AI (Chemicon) was added thereto. Six hours after, the cholesterol efflux activity was measured by the same method as described in (1) above.

THP-1 cells [4] = test: DiI-labeled acetyl LDL (denatured lipoprotein) uptake activity in THP-1 cells, FACS; assay type: cell-based
Description: THP-1 cells (purchased from ATCC) seeded in a 6-well Low Cell Binding Plate (Nunc) at 1.5×10^6/well were treated for 2 days in RPMI-1640 medium (supplemented with 0.4% FBS, 25 mM HEPES and penicillin/streptomycin) containing phorbol-12-myristate-13-acetate (PMA) (final concentration: 100 nM) or in RPMI-1640 medium (supplemented with 0.4% FBS, 25 mM HEPES and penicillin/streptomycin) containing PMA (final concentration: 100 nM) and D-PDMP (final concentration: 20 μM). Next, the treated cells were washed with serum-free RPMI-1640 medium and then suspended in serum-free RPMI-1640 medium supplemented with DiI (1,1′-dioctadecyl-3,3,3′,3′-tetramethylindocarbocyanine)-labeled acetyl LDL (Funakoshi, final concentration: 20 μg/ml), followed by incubation at 37° C. for 90 minutes while shaking. After washing with PBS, the cells were suspended in Cellfix buffer (BD) and uptake of DiI-labeled acetyl LDL was analyzed on a FACScan (BD Bioscience). The intermediate value obtained by the FACS analysis of the cells treated with phorbol-12-myristate-13-acetate alone was made 100%, and relative values were determined under each condition.

[5] = target: T1, glucosylceramide synthase; test: Glucosylceramide synthase enzyme assay ([14C]UDP-glucose, C8 ceramide, lysate of transfected HEK293 cells); assay type: biochemical; parameters: made in house; host or cells: HEK293 cells, transiently transfected with pcDNA3.1(-) vector; M-PER lysate, soluble fraction after 27,000 x g; details: calculated using SAS Preclinical Package, ver. 5
Description: Human glucosylceramide synthase gene was obtained from IMAGE clone 5274768 (Invitrogen). The reaction solution for the reaction was composed of 2 μl of plasmid DNA of IMAGE clone 5274768, 5 μl of 10×Pfu buffer (Stratagene), 1 μl of Hotstart Pfu (Stratagene), 1 μl each of 20 μM primers and 4 μl of 2.5 mM dNTP, to which 36 μl of distilled water was added to make the volume […]. After 2 minutes at 95° C., PCR was carried out by repeating 30 cycles, one set to include 95° C. for 30 seconds, 60° C. for 30 seconds and 72° C. for 2 minutes, followed by an extension at 72° C. for 10 minutes. […]
HEK293 cells (purchased from ATCC; J. Gen. Virol., 36, 59-74, 1977) were cultured in serum-containing DMEM medium and seeded in a 10 cm collagen coated plate (Iwaki Co.) at 1.2×10^6 on the previous day of gene transfer. […] Then, the chloroform layer was collected and the radioactivity was measured in a liquid scintillation counter. The activity value was determined by the following equation: Glucosylceramide synthase activity (%)=Radioactivity of the enzyme reaction product (cpm)/Specific radioactivity of [^14C]UDP-glucose (cpm/nmol)×1/amount of protein (mg)·reaction time (hr)
D-PDMP known to inhibit the glucosylceramide synthase activity was examined using the procedure described above. The IC50 was calculated using SAS Preclinical Package, ver. […]

human endothelial cells = details: added to the culture system; J. Biol. Chem., 273, 34349, 1998; cited from earlier work
[6] = test system: human smooth muscle cells; details: added to the culture system; Biochem. Biophys. Res. Commun., 181, 554-61, 1991; cited from earlier work
[7] = exogenously added to the culture system, summary of TABLES 2 and 3

Row | IC50 [5] [µM] | Compound | Effect on the action of TNF-α that inhibits phosphorylation of IRS-1 (phosphorylation of IRS-1) | Depletion of glucosylceramide and lactosylceramide in cells (in words) (cells) | Inhibition of glucosylceramide synthase activity (in words) [1] | Inhibition of lactosylceramide synthase activity (in words) [2] | Cholesterol Efflux Activity (%) (THP-1 cells [3]; D-PDMP 10 μM, 24 hrs. treatment, 0 μM control 1.7 ± 0.3) | Cholesterol Efflux Activity (%) (THP-1 cells [3]; D-PDMP 10 μM, 48 hrs. treatment, 0 μM control 2.1 ± 0.2) | Cholesterol Efflux Activity (%) (THP-1 cells [3]; D-PDMP 20 μM, 24 hrs. treatment, 0 μM control 1.7 ± 0.3) | Cholesterol Efflux Activity (%) (THP-1 cells [3]; D-PDMP 20 μM, 48 hrs. treatment, 0 μM control 2.1 ± 0.2) | Effect on cholesterol efflux activity (in words) (THP-1 cells [3]; summary of TABLE 1) | Acetyl LDL Uptake Activity (%) (THP-1 cells [4]; D-PDMP 20 μM with PMA 100 nM, 2 days, relative to PMA alone = 100%, mean ± standard deviation) | Effect on acetyl LDL uptake activity (in words) (THP-1 cells [4]; summary of TABLE 4) | Cholesterol Efflux Activity (%) (THP-1 cells [3]; Glucosylceramide 10 μM, 24 hours, 0 μM control 3.6 ± 0.1) | Effect on cholesterol efflux activity (in words) (THP-1 cells [3]; [7]) | Expression of cell adhesion molecules such as ICAM-1 (human endothelial cells) | Cholesterol Efflux Activity (%) (THP-1 cells [3]; Lactosylceramide 10 μM, 24 hours, 0 μM control 4.3 ± 0.2) | Proliferation activity [6]
1 | 1.5 | CCCCCCCCCC(=O)N[C@H](CN1CCOCC1)[C@H](O)c1ccccc1 [D-PDMP, D-threo-1-phenyl-2-decanoylamino-3-morpholino-1-propanol] | suppresses the action of TNF-α that inhibits phosphorylation of IRS-1 | deplete glucosylceramide and lactosylceramide in cells in a concentration- and treating time-dependent manner | known to inhibit the activities | known to inhibit the activities | 4.4 ± 0.4 | 6.0 ± 0.4 | 4.3 ± 0.8 | 6.8 ± 0.5 | increased the cholesterol efflux activity concentration- and time-dependently | 28.9 ± 6.3^ % | suppressed the acetyl LDL uptake activity | – | – | – | – | –
2 | – | Glucosylceramide | – | – | – | – | – | – | – | – | – | – | – | 3.2 ± 0.2 | suppressed | – | – | –
3 | – | Lactosylceramide | – | – | – | – | – | – | – | – | – | – | – | – | suppressed | is increased in human endothelial cells | 2.3 ± 0.2 | the proliferation activity is increased
